# Source: patent US6548505B1, “Radioprotectors” (Peter MacCallum Cancer Institute, priority 1995, dated 2003)
# Values joined by “and” are separate entries in the source; they are usually repeats but may differ in a detail not shown here. Equal entries are not always repeated.
# Columns and labels:
# V79 cells [1] = experiment: Radioprotection, clonogenic survival of irradiated V79 cells; type: cell-based; details: for DMF: survival curves FIG. 3; for Protector plus irradiation (12 Gy), survival fraction relative to untreated control cells / Protection Factor: 12 Gy; for Protection Factor: ratio of survival fractions with and without protector
# Protocol: (§1) Monolayers of V79 cells were maintained in 25 cm^2 Falcon plastic flasks in alpha-MEM medium with 10% foetal calf serum (FCS). Log phase cultures were treated by adding the required amount of Hoechst 33258, Hoechst 33342 or para dimethylamino Hoechst (25-500 nmoles) dissolved in 50 μL 10 μM acetic acid in 50% methanol. The flasks were inverted immediately prior to adding the compound to ensure complete mixing of the compound with the medium, before contact with the monolayer.
# (§2) After 2 hours incubation at 37° C., the cells were harvested and assayed for clonogenic survival. […] All clonogenic survival results are expressed relative to the untreated controls.
# Cultures were irradiated in a 137Cs Gammacell-40 (Atomic Energy of Canada Ltd.) at a dose rate of 0.84 Gy/min. Ligand-treated cells were irradiated two hours after starting the exposure to the ligand. In all cases, the clonogenic survival was delayed until one hour after completion of irradiation.
# (§3) Hoechst 33258, Hoechst 33342 or para dimethylamino Hoechst was added to the media of monolayers of V79 cells, to the indicated final concentrations. […] All cultures were held for a further one hour prior to plating for clonogenic survival.
# Mono layer cultures of V79 cells were exposed to various concentrations of the three radioprotectors, as described in (a) above. After two hours, the cells were chilled and kept cold during the isolation of nuclei, using 0.08% w.v Triton X-100. After counting an aliquot of the nuclear suspension, the ligands were extracted and quantitated by spectrophotometry and the nuclear content calculated. The survival results shown in the lower part of FIG. 1 were replotted using the nuclear uptake data and the results are shown in FIG. 2.
# The first three columns show survival fraction relative to that for untreated control cells. Each row represents a separate experiment and the figures are the means of duplicates. The figures in square brackets is the mean of a number of the results of a number of experiments done over the relevant period. The protection factor is the ratio of survival fractions for irradiated cells, with and without protector.
# A number of bibenzimidazoles represented by formula (I) have been synthesised and assayed for radioprotective activity in cell culture. Assays were conducted using V79 fibroblasts and involved exposure of the cells to a single radiation dose (12Gy) and comparison of the clonogenic survival with and without the inclusion of the protector in the cell culture medium. The ratio of the survival fractions (with protector/without), designated the protection ratio (PR12Gy), provides a measure of the extent of radioprotection. The experimental protocol adopted was as in Example 12.
# V79 cells [2] = experiment: Cytotoxicity, clonogenic survival of V79 cells without irradiation
# Protocol: as §1, §2, §3
# pig skin = experiment: Pig skin studies, topical radioprotector cream; type: in vivo; details: cream 0.15 g/field
# Source text: The pig skin model is described by J. W. Hopewell^4. The structural similarities between human and pig skin underlie the relevance of the model.
# Although some pig skin studies involve external beam irradiation, a particularly convenient radiation source is discs containing β-emitting isotopes, typically ^90Sr. The sources can be held to the skin, or for higher doses, taped to the animal, for appropriate periods of time to deliver the required dose. The discs are typically about 2 cm in diameter so that an array of different doses can be arranged on the flanks of a single animal.
# The “acute” reactions (3-9 weeks after irradiation) result from radiation damage to the basal cells of the epidermis, and are manifest as erythema, and dry and moist desquamation. The “late” reactions (10-16 weeks) results from radiation effects to the dermal vascular connective tissue, characterized by a dusky mauve erythema and necrosis. The scoring system is well described.
# The radioprotectors were formulated in a propylene glycol cream containing 10% DMSO. The extent and kinetics of penetration were followed by fluorescence microscopy of frozen skin sections, to enable optimization of delivery.
# Radiation dose response curves were constructed for radiation only fields. The results of fields with radioprotector creams are shown in Table 3 below, with the respective cream (vehicle) only controls. The decrease in extent of skin reaction for the test fields is evident.
# HT29 = experiment: Radioprotection DMF in HT29 cells (Table 1); type: cell-based; details: HT29, 8.7 μM
# [3] = tested on: mouse brain endothelial cells; experiment: Protection of mouse brain endothelial cells; type: in vivo; details: 80 mg/kg i.v. 10 minutes prior to radiation, within 24 hours, FIG. 6
# Protocol: Irradiation of rodent brain results in the loss of a subset of brain endothelial cells within 24 hours after irradiation.
# Endothelial cell numbers were scored as described by Lyubimova et al. Each point represents the mean for 3-4 mice; 3 sections were scored for each animal, a total of 30 fields were scored for each section, and the figure indicates the average number of cells per field. The error bars indicate standard errors.
# CHO = experiment: Radioprotection DMF in CHO cells (Table 1, existing radioprotector); type: cell-based; details: 4 mM
# [4] = tested on: Chinese Hamster Ovary (CHO) fibroblasts; experiment: Radioprotection survival curves of cultured CHO cells (FIG. 7, Table 5); type: cell-based; details: ratio of doses reducing survival to 10% of control
# Source text: where S is the survival fraction at dose D Gy, and α and β are constants.
# The fitted values of α and β were used to calculate the radiation doses (D0.1) corresponding to a survival fraction of 0.1. The ratio of the D0.1 values with and without protector, then provided the Dose Modification Factor (DMF) for each compound:
# DMF=D0.1(with protector)/D0.1(without)
# mouse lung = experiment: Mouse lung model, bilateral lung irradiation; type: in vivo; details: maximum breathing rate up to 24 weeks, FIG. 5
# Source text: Irradiation of mouse lung, at appropriate doses, results in fatal loss of lung function. The onset of damage is signalled by an increase in breathing rate. The dose response and kinetics of loss of lung function following irradiation of both lungs varies between different mouse strains.
# The procedures for irradiation and measurement of breathing rate were essentially as described by Travis et al^3. Groups of 5-6 male DBA/2J mice were anaesthetised and irradiated with 250 kV X-rays (single dose) using a jig that shielded all the body except for both lungs. A thin midline lead strip was used to shield spinal cord between the lungs.
# At weekly intervals, from 4-6 weeks post-irradiation, the breathing rate was measured for each mouse. The mouse was held in a small chamber equipped with a microphone and the output analysed on a PC. The mean breathing rate was determined for each of 3 periods of 2 seconds and the average of these readings was recorded as the breathing rate. The recorded breathing rates for each group of mice were averaged and the standard error calculated.
# All mice were monitored daily for signs of respiratory distress (hunched appearance, raised hair), with particular attention being paid to those mice showing elevated breathing rate.
# The radioprotector (2 mg/25 g mouse) was administered 30 minutes prior to the single irradiation dose.
# [5] = V79 cells, no irradiation, clonogenic survival, FIG. 1
structure (smiles),measurement,setting,value
"CCOc1ccc(-c2nc3cc(-c4nc5cc(N6CCN(C)CC6)ccc5[nH]4)ccc3[nH]2)c(C)c1 [Compound 6, 4-Ethoxy-2-methyl{5′-[5″(4′″-methylpiperazin-1′″-yl)benzimidazol-2″-yl]benzimidazol-2′-yl}benzene]","Protection ratio 12Gy, Exp 3","V79 cells [1]; V79, 12Gy 137Cs-γ, 20 μM",8.0
"CN1CCN(c2ccc3[nH]c(-c4ccc5[nH]c(-c6cccc(N(C)C)c6)nc5c4)nc3c2)CC1 [Compound 9, 3-N,N-Dimethylamino-1-{5′-[5″-(4′″-methylpiperazin-1′″-yl)benzimidazol-2″-yl]benzimidazol-2′-yl}benzene]","Protection ratio 12Gy, Exp 6","V79 cells [1]; V79, 12Gy 137Cs-γ, 20 μM",3.6
same,"Protection ratio 12Gy, Exp 7","V79 cells [1]; V79, 12Gy 137Cs-γ, 30 μM",7.6
same,"Protection ratio 12Gy, Exp 7","V79 cells [1]; V79, 12Gy 137Cs-γ, 40 μM",7.2
same,"Protection ratio 12Gy, Exp 1","V79 cells [1]; V79, 12Gy 137Cs-γ, 50 μM",9.7
same,"Protection ratio 12Gy, Exp 2","V79 cells [1]; V79, 12Gy 137Cs-γ, 50 μM",9.5
same,"Protection ratio 12Gy, Exp 7","V79 cells [1]; V79, 12Gy 137Cs-γ, 50 μM",8.2
"CN1CCN(c2ccc3[nH]c(-c4ccc5[nH]c(-c6ccc(N(C)C)cc6)nc5c4)nc3c2)CC1 [Compound 1, 4Dimethylamino-1-[5′-{5′″-(4′″-methylpiperazin-1′″-yl)benzimidazol-2″-yl]benzimidazol-2′-yl}benzene]",concentration up to which there is no effect on survival,V79 cells [2]; [5],up to 100 μM
same,DMF,"V79 cells [1]; V79, 84 μM",1.7
same,"Protection ratio 12Gy, Exp 8","V79 cells [1]; V79, 12Gy 137Cs-γ, 20 μM",5.1
same,"Protection ratio 12Gy, Exp 8","V79 cells [1]; V79, 12Gy 137Cs-γ, 40 μM",7.7
same,"Protection ratio 12Gy, Exp 8","V79 cells [1]; V79, 12Gy 137Cs-γ, 50 μM",8.0
same,"radioprotective potency, survival after 12Gy in terms of nuclear content of the radioprotector","V79 cells [1]; V79 cells, 12Gy, uptake per 10^6 nuclei, FIG. 2",more potent radioprotector
same,Fields showing moist desquamation (10 weeks post-Irr.) #,"pig skin; 36 Gy, 5000 μg/g",4/7
same,Fields showing moist desquamation (10 weeks post-Irr.) %,"pig skin; 36 Gy, 5000 μg/g",57%
"CCOc1ccc(-c2nc3ccc(-c4nc5ccc(N6CCN(C)CC6)cc5[nH]4)cc3[nH]2)cc1 [Hoechst 33342, 4-ethoxy-1-{5′[5′″-(4′″-methylpiperazin-1′″-yl)benzimidazol-2″-yl]benzimidazol-2′-yl}benzene, reference compound]","Protector only (no irradiation), survival fraction relative to untreated control cells",V79 cells [2]; 21 μM,0.80 and 0.87 and 0.76
same,concentration above which the protector becomes cytotoxic,V79 cells [2]; [5],20 to 30 µM
same,"Protector plus irradiation (12 Gy), survival fraction relative to untreated control cells",V79 cells [1]; 21 μM,0.05 and 0.06 and 0.051
same,Protection Factor,V79 cells [1]; 21 μM,2.3 and 2.7
same,DMF,"V79 cells [1]; V79, 21 μM",1.3
same,"Protection ratio 12Gy, Exp 1","V79 cells [1]; V79, 12Gy 137Cs-γ, 20 μM",7.2
same,"Protection ratio 12Gy, Exp 4","V79 cells [1]; V79, 12Gy 137Cs-γ, 20 μM",11.8
same,"Protection ratio 12Gy, Exp 9","V79 cells [1]; V79, 12Gy 137Cs-γ, 20 μM",7.1
same,DMF,HT29,1.5
same,Fields showing moist desquamation (10 weeks post-Irr.) #,"pig skin; 36 Gy, 5000 μg/g",3/7
same,Fields showing moist desquamation (10 weeks post-Irr.) %,"pig skin; 36 Gy, 5000 μg/g",43%
same,Fields showing moist desquamation (10 weeks post-Irr.) #,"pig skin; 40 Gy, 500 μg/g",4/6
same,Fields showing moist desquamation (10 weeks post-Irr.) %,"pig skin; 40 Gy, 500 μg/g",83%
same,loss of endothelial cells of mouse brain after irradiation,[3],protected
"CCOc1ccc(-c2cc3ccc(-c4nc5cc(N6CCN(C)CC6)ccc5[nH]4)cc3[nH]2)cc1 [Compound 10, 4-Ethoxy-1-{6′-[5″-(4′″-methylpiperazin-1′″-yl)benzimidazol-2″-yl]indol-2′-yl}benzene]","Protection ratio 12Gy, Exp 9","V79 cells [1]; V79, 12Gy 137Cs-γ, 20 μM",1.5
same,"Protection ratio 12Gy, Exp 9","V79 cells [1]; V79, 12Gy 137Cs-γ, 40 μM",1.4
NCCCNCCS [WR1065],DMF,CHO,1.9
"CCOc1ccc(-c2nc3cc(-c4nc5cc(N6CCN(C)CC6)ccc5[nH]4)ccc3[nH]2)c(C(C)C)c1 [Compound 7, 4-Ethoxy-2i-propyl-1-{5′-[5″-(4′″-methylpiperazin-1′″-yl)benzimidazol-2′-yl]benzimidazol-2′-yl}benzene]","Protection ratio 12Gy, Exp 4","V79 cells [1]; V79, 12Gy 137Cs-γ, 20 μM",10.8
same,"Protection ratio 12Gy, Exp 4","V79 cells [1]; V79, 12Gy 137Cs-γ, 30 μM",10.4
same,"Protection ratio 12Gy, Exp 5","V79 cells [1]; V79, 12Gy 137Cs-γ, 30 μM",11.3
same,"Protection ratio 12Gy, Exp 4","V79 cells [1]; V79, 12Gy 137Cs-γ, 40 μM",14.2
same,"Protection ratio 12Gy, Exp 5","V79 cells [1]; V79, 12Gy 137Cs-γ, 40 μM",13.2
same,"Protection ratio 12Gy, Exp 5","V79 cells [1]; V79, 12Gy 137Cs-γ, 50 μM",15.2
same,DMF,[4]; 20 μM,1.42
"CN1CCN(c2ccc3[nH]c(-c4ccc5[nH]c(-c6ccc([N+](=O)[O-])cc6)nc5c4)nc3c2)CC1 [para nitro Hoechst, reference compound]","Protector only (no irradiation), survival fraction relative to untreated control cells",V79 cells [2]; 20 μM,0.89
same,"Protector plus irradiation (12 Gy), survival fraction relative to untreated control cells",V79 cells [1]; 20 μM,0.011
same,Protection Factor,V79 cells [1]; 20 μM,[0.5]*
"Cc1cc(N(C)C)ccc1-c1nc2cc(-c3nc4cc(N5CCN(C)CC5)ccc4[nH]3)ccc2[nH]1 [Compound 5, ortho methyl para dimethylamino Hoechst]","Protector only (no irradiation), survival fraction relative to untreated control cells",V79 cells [2]; 20 μM,0.71 and 0.63 and 0.88
same,"Protector plus irradiation (12 Gy), survival fraction relative to untreated control cells",V79 cells [1]; 20 μM,0.15 and 0.145 and 0.12
same,Protection Factor,V79 cells [1]; 20 μM,4.4 and 4.0 and 4.3
same,DMF,"V79 cells [1]; V79, 30 μM",2.1
same,"Protection ratio 12Gy, Exp 5","V79 cells [1]; V79, 12Gy 137Cs-γ, 30 μM",17.4
same,"Protection ratio 12Gy, Exp 10","V79 cells [1]; V79, 12Gy 137Cs-γ, 30 μM",18.7
same,DMF,[4]; 30 μM,1.66
same,"DMF, maximum breathing rate",mouse lung,1.4
same,Fields showing moist desquamation (10 weeks post-Irr.) #,"pig skin; 40 Gy, 5000 μg/g",4/8
same,Fields showing moist desquamation (10 weeks post-Irr.) %,"pig skin; 40 Gy, 5000 μg/g",50%
same,Fields showing moist desquamation (10 weeks post-Irr.) #,"pig skin; 44 Gy, 5000 μg/g",4/8
same,Fields showing moist desquamation (10 weeks post-Irr.) %,"pig skin; 44 Gy, 5000 μg/g",50%
"CN(C)c1ccc(-c2nc3cc(-c4nc5cc(N6CCCCC6)ccc5[nH]4)ccc3[nH]2)cc1 [Compound 2, 4-Dimethylamino-1-{5′-[5″-(piperidin-1′″-yl)benzimidazol-2″-yl]benzimidazol-2′-yl}benzene]","Protector only (no irradiation), survival fraction relative to untreated control cells",V79 cells [2]; 17 μM,0.89 and 0.81
same,"Protector plus irradiation (12 Gy), survival fraction relative to untreated control cells",V79 cells [1]; 17 μM,0.062 and 0.059
same,Protection Factor,V79 cells [1]; 17 μM,2.8 and 2.7
